Test results: US8796209B2, “Compositions and methods related to anti-FGF agents” (The Regents of the University of California, priority 2005, dated 2014)

Legend:
Assay type in all cases: cell-based
M21 human melanoma cells [1] = assay: Chemoresistance: cell viability with etoposide (MTS); conditions: etoposide 0.1-100 μM, 48 h
Description: In FIG. 10, results are provided showing suppression of FGF-induced drug resistance in M21 melanoma cells. Resistance of melanoma cells was to etoposide-induced apoptosis. M21 human melanoma cells were cultured in DMEM with 1% FBS for 48 h, and then treated with etoposide (0.1-100 μM) in the presence or absence of wt or mutant FGF for 48 h, with cell viability determined.
(§1) Cells were plated on well of 96-well tissue culture plates and serum-starved for 48-72 h in DMEM supplemented with 0-1% FBS. Then cells were treated with etoposide (up to 100 μM) and wt or mutant FGF for additional 24-48 h. Cell viability was determined using CellTiter 96 MTS assay (Promega) and caspases 3/7 activity was determined by using Caspase-Glo 3/7 assay kit (Promega). FIGS. 10 and 11.

M21 human melanoma cells [2] = assay: Chemoresistance: caspases 3/7 activity with etoposide; conditions: in presence of wt FGF
Description: M21 human melanoma cells were cultured in DMEM with 1% FBS for 48 h, and then treated with etoposide (0.1-100 μM) in the presence or absence of wt or mutant FGF for 48 h.
as §1

αvβ3-K562 cells = assay: Cell adhesion assay on immobilized FGF-1, αvβ3-K562 cells; conditions: 1 mM MnCl2
Description: Wells of 96-well microtiter plates were coated with FGF-1 at the indicated concentrations and remaining protein binding sites were blocked with 1 mg/ml BSA. Hepes-Tyrode buffer supplemental with 1 mM MnCl2) was used for adhesion assays. Prior to incubation with immobilized FGF-1, αvβ3-K562 cells were treated with 10 μg/ml anti-β3 function-blocking antibody 7E3 (triangle), anti-α5 function-blocking antibody KH72 (square), both 7E3 and KH72 (circle), or mouse IgG (diamond). BSA (cross) was used as a negative control. Data is shown as means+/−SD of triplicate experiments.
(§2) Wells of polystyrene 96-well non-tissue culture plate were coated with wild type or mutants FGF-1 as above. In adhesion assay, cells (10^5 cells/well) in 100 μl of Hepes-Tyrode buffer supplemented with 1 mM Mn^2+ were added to the wells and incubated at 37° C. for 1 h. After non-bound cells were removed by rinsing the wells with the same buffer, bound cells were quantified by measuring endogenous phosphatase activity (Prater et al., 1991)

K562 cells = assay: Cell adhesion assay on immobilized FGF-1, mock-transfected K562 cells; conditions: 1 mM MnCl2
Description: K562 cells were treated with 10 μg/ml anti-α5 function-blocking antibody KH72 (square) or mouse IgG (diamond) for 10 min on ice. Hepes-Tyrode buffer supplemented with 1 mM MnCl2) was used for adhesion assays. Bound cells were quantified by measuring endogenous phosphatase activity. BSA (cross) was used as a negative control. Data is shown as means+/−SD of triplicate experiments.
as §2

| Substance | effect on apoptosis induced by etoposide (M21 human melanoma cells [1]) | effect on caspase activation (M21 human melanoma cells [2]) | adhesion of αvβ3-K562 cells to the immobilized protein (αvβ3-K562 cells) | adhesion of mock-transfected K562 cells to the immobilized protein (K562 cells) |
| --- | --- | --- | --- | --- |
| R50E: FGF-1 mutant with the Arg-50 to Glu (R50E) mutation | enhanced apoptosis | blocked inhibition of caspase activation |  |  |
| Wild type: human FGF-1 (acidic FGF), wild type, expressed in E. coli |  |  | bound to immobilized FGF-1 in a dose-dependent manner | bound to immobilized FGF-1 in a dose-dependent manner |
